Laboratory results as given in article PMC10892984, “Novel Antineoplastic Inducers of Mitochondrial Apoptosis in Human Cancer Cells” (Molecules, 2024).

System: HL-60 (TB)
Settings: for CC50: read-out: LC50; for TGI: HL-60 (TB), leukemia, mutant p53, 48 h

Compound	CC50 (Homo sapiens, HL-60, 48 h)	TGI	GI50 (Homo sapiens, HL-60, 48 h)
c1cc(CNC23CC4CC(CC(C4)C2)C3)cc(C[N+](Cc2cccc(CNC34CC5CC(CC(C5)C3)C4)c2)(Cc2cccc(CNC34CC5CC(CC(C5)C3)C4)c2)Cc2cccc(CNC34CC5CC(CC(C5)C3)C4)c2)c1 (centres unmarked) [Compound 1, tetrakis{3-[(tricyclo[3.3.1.1^3,7]decan-1-ammonio)methyl]benzyl}ammonium pentachloride]	> 50000 nM		
COc1cc2c(c(OC)c1OC)-c1ccc(NNC(=S)N(Cc3cccc(C[N+](Cc4cccc(CNC56CC7CC(CC(C7)C5)C6)c4)(Cc4cccc(CNC56CC7CC(CC(C7)C5)C6)c4)Cc4cccc(CN(C(=S)NNc5ccc6c(cc5=O)C(NC(C)=O)CCc5cc(OC)c(OC)c(OC)c5-6)C56CC7CC(CC(C7)C5)C6)c4)c3)C34CC5CC(CC(C5)C3)C4)c(=O)cc1C(NC(C)=O)CC2 [Compound 3, [(bis{3-[(tricyclo[3.3.1.1^3,7]decan-1-ylamino)methyl]benzyl}ammonio)bis(methanediylbenzene-3,1-diylmethanediyl)]di-2-[(aS,7S)-7-(acetylamino)-1,2,3-trimethoxy-9-oxo-5,6,7,9-tetrahydrobenzo[a]heptalen-10-yl]-N-(tricyclo[3.3.1.1^3,7]decan-1-yl)hydrazinecarbothioamide chloride pentahydrate]		1030 nM	
COc1cc2c(c(OC)c1OC)-c1ccc(NNC(N)=S)c(=O)cc1C(NC(C)=O)CC2 [Compound 2, N-[(aS,7S)-10-(2-carbamothioylhydrazinyl)-1,2,3-trimethoxy-9-oxo-5,6,7,9-tetrahydrobenzo[a]heptalen-7-yl]acetamide monohydrate × ⅔ (ethyl acetate)]	> 100000 nM	1260 nM	113 nM
